As a reminder, the pEC50 is the EC50 on a negative log10 scale, so that one unit is a factor of ten. Read a low pEC50 as a high EC50.

pEC50: −log10 of the molar value.

In patent US8957063B2, “Amine and ether compounds which modulate the CB2 receptor” (priority 2008, dated 2015) one finds EC50 data, which are given here for 16 compounds.

In the assay the target is T1, human CB2R (Homo sapiens, UniProt P34972).
T1 construct: host or cells: CHO cells
T1 sequence (P34972 whole entry): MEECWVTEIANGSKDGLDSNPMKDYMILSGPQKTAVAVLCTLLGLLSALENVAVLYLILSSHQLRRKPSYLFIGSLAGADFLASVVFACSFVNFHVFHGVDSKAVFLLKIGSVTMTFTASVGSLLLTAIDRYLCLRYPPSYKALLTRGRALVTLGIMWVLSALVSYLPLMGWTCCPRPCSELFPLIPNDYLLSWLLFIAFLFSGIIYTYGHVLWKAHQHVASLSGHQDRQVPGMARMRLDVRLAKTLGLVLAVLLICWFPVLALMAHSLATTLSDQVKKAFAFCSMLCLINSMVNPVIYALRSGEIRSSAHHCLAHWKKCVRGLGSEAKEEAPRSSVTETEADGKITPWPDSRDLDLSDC
The assay can be described thus: CB2R mediated modulation of cAMP synthesis. It is filed as cell-based. The method, then: B. CB2R Mediated Modulation of cAMP Synthesis:
Compounds of the invention were evaluated for their CB2 agonist or inverse agonistic activity in accordance with the following experimental method.
CHO cells expressing human CB2R (Euroscreen) were plated at a density of 5000 cells per well in 384 well plates and incubated overnight at 37° C. After removing the media, the cells were treated with test compounds diluted in stimulation buffer containing 1 mM IBMX, 0.25% BSA and 10 uM Forskolin. The assay was incubated for 30 minutes at 37° C. Cells were lysed and the cAMP concentration was measured using DiscoverX-XS cAMP kit, following the manufacturer's protocol. In this setting, agonists will decrease forskolin induced production of cAMP while inverse agonists will further increase forskolin induced production of cAMP. EC50 of agonists were calculated as follows. The maximal amount of cAMP produced by forskolin compared to the level of cAMP inhibited by 1 uM CP55940 is defined as 100%. The EC50 value of each test compound was determined as the concentration at which 50% of the forskolin-stimulated cAMP synthesis was inhibited. Data was analyzed using a four-parameter logistic model. (Model 205 of XLfit 4.0).
Consider `COc1ccc(NC(C)(C)C(=O)Nc2cc(C(C)(C)C)on2)cc1` [Example 9, N-(5-tert-Butyl-isoxazol-3-yl)-2-(4-methoxy-phenylamino)-2-methyl-propionamide], for which the negative logarithm of the EC50 (pEC50) is 8.06.

With `CC(C)(OC1CCOCC1)C(=O)Nc1cc(C(C)(C)C)no1` [Example 4, N-(3-tert-Butyl-isoxazol-5-yl)-2-methyl-2-(tetrahydro-pyran-4-yloxy)-propionamide], the negative logarithm of the EC50 (pEC50) was 6.97. This pEC50 is 1.09 log units lower than that of the compound before. `CN(C(=O)c1ccc(Cl)cc1)C(C)(C)C(=O)Nc1cc(C(C)(C)C)on1` [Example 50, N-[1-(5-tert-Butyl-isoxazol-3-ylcarbamoyl)-1-methyl-ethyl]-4-chloro-N-methyl-benzamide]: the negative logarithm of the EC50 (pEC50) is 6.91. In the case of `CC(C)(NC1CCOCC1)C(=O)Nc1nc(-c2ccccc2)n[nH]1` [Example 42, 2-Methyl-N-(5-phenyl-2H-1,2,4-triazol-3-yl)-2-(tetrahydro-pyran-4-ylamino)-propionamide] it was 6.59; in that of `CN(C(=O)N1CCS(=O)(=O)CC1)C(C)(C)C(=O)Nc1cc(C(C)(C)C)on1` [Example 51, 1,1-Dioxo-1λ6-thiomorpholine-4-carboxylic acid [1-(5-tert-butyl-isoxazol-3-ylcarbamoyl)-1-methyl-ethyl]-methyl-amide], 7.41. With `CC(C)(C)c1cc(NC(=O)C(C)(C)N2CCCC2)no1` [Example 27, N-(5-tert-Butyl-isoxazol-3-yl)-2-pyrrolidin-1-yl-isobutyramide] the figure was 7.64.

With `CC1CCCCN1C(C)(C)C(=O)Nc1cc(C(C)(C)C)on1` (stereo not shown) [Example 24, N-(5-tert-Butyl-isoxazol-3-yl)-2-(2-methyl-piperidin-1-yl)-isobutyramide], the pEC50 is 8.92. In the case of `CC(C)(NC1CC1)C(=O)Nc1cc(C(C)(C)C)on1` [Example 23, N-(5-tert-Butyl-isoxazol-3-yl)-2-cyclopropylamino-2-methyl-propionamide] it was 6.63; in that of `CC(C)(C)c1cc(NC(=O)C(C)(C)N2CCCCC2)no1` [Example 26, N-(5-tert-Butyl-isoxazol-3-yl)-2-piperidin-1-yl-isobutyramide], 9.26. With `CC(C)(OC1CCOCC1)C(=O)Nc1cc(C(C)(C)C)on1` [Example 5, N-(5-tert-Butyl-isoxazol-3-yl)-2-methyl-2-(tetrahydro-pyran-4-yloxy)-propionamide] the figure was 6.91. `CC(C)(NC1CCOCC1)C(=O)Nc1cc(C(C)(C)C)no1` [Example 39, N-(3-tert-Butyl-isoxazol-5-yl)-2-methyl-2-(tetrahydro-pyran-4-ylamino)-propionamide] showed a negative-log EC50 (pEC50) of 7.54. On to `CN(C(C)(C)C(=O)Nc1cc(C(C)(C)C)on1)S(=O)(=O)c1ccc(Cl)cc1` [Example 48, N-(5-tert-Butyl-isoxazol-3-yl)-2-[(4-chloro-benzenesulfonyl)-methyl-amino]-2-methyl-propionamide], for which the pEC50 is 9.44. With `CC(C)(OCC1CCOCC1)C(=O)Nc1cc(C(C)(C)C)no1` [Example 2, N-(3-tert-Butyl-isoxazol-5-yl)-2-methyl-2-(tetrahydro-pyran-4-ylmethoxy)-propionamide] the figure was 8.09; with `CC(C)(NC1CCCCC1)C(=O)Nc1cc(C(C)(C)C)on1` [Example 14, N-(5-tert-Butyl-isoxazol-3-yl)-2-cyclohexylamino-2-methyl-propionamide], 8.02.

In turn, `CC(C)(Oc1ccc(Cl)cc1)C(=O)Nc1cc(C(C)(C)C)on1` [Example 1, N-(5-tert-Butyl-isoxazol-3-yl)-2-(4-chloro-phenoxy)-2-methyl-propionamide] showed a negative logarithm of the EC50 (pEC50) of 8.62. In the case of `CC(C)(C)c1cc(NC(=O)C(C)(C)N2CCSCC2)no1` [Example 22, N-(5-tert-Butyl-isoxazol-3-yl)-2-thiomorpholin-4-yl-isobutyramide] it was 8.00.
